Experimental findings from US11702417B2, “Compounds for improving mRNA splicing” (The General Hospital Corporation, priority 2015, dated 2023) are described below.

The test system of this test is FD (familial dysautomonia) IKBKAP minigene, exon 20 inclusion, in HEK293T cells. In words: Primary splicing assay (FD IKBKAP minigene, Firefly/Renilla luciferase reporter in HEK293T). The class given is cell-based, human. To be noted: for Emax / EC (maximum kinetin efficacy): Homo sapiens, HEK-293T; for EC (maximum kinetin efficacy): HEK293T, read-out: ECk (compound concentration at which the maximum kinetin efficacy (200 μM) is reached); for ECk (RT-PCR): determined by RT-PCR, footnote a Firefly inhibitor, footnote b Renilla interference; for ECk, Firefly only: Renilla interference/Firefly only (footnote c). Here is the method: As used herein, the expression “ECk” refers to the compound concentration at which the maximum kinetin efficacy (200 μM) is reached.
Splicing analysis was made possible by using an FD (familial dysautomonia) IKBKAP minigene which contained exon 19 through exon 21, including intervening introns, and also the T→C Thymine to cytosine transition located 6 base-pairs from the end of IKBKAP exon 20; See SEQ ID NO:3 for the complete sequence of plasmid pcDNA3.1/V5HisTOPO with Renilla-Familial Dysautonomia minigene-Firefly. Firefly luciferase (SEQ ID NO:14) was utilized as a splicing reporter, located downstream of exon 21, and Renilla luciferase (SEQ ID NO:13) was used as a control, located upstream of exon 19. The sequence of exon 19 is presented as SEQ ID NO:7; the Intron between Exon 19 and Exon 20 is SEQ ID NO:8; exon 20 is SEQ ID NO:9; the intron between […]; exon 21 is SEQ ID NO: 11, and the spliced sequence of exons 19-20-21 is SEQ ID NO:12. HEK293T cells were plated in a 6-well plate 24 hours prior to transfection. Transfection was carried out using a mixture of Opti-MEM (GIBCO ref. 31985), IKBKAP minigene, and Fugene HID (PROMEGA ref. E2311), incubated in DMEM media containing HEK293T cells at 37° C. The ratio of Opti-MEM, minigene, and Fugene was kept at approximately 9:1.5:1, with a total volume of 150 μL of transfection mixture applied per well.
After 4 hours of transfection, the cells were then plated in a 96-well plate coated with poly-L-lysine (SIGMA cat.P4707) for treatment scheduled 24 hours later. […] After 24 hours of treatment, cells were washed in the poly-L-lysine coated 96-well plate using PBS and subsequently harvested using Passive Lysis Buffer (Promega cat.E196). Cell lysate was transferred to a black and white 96-well plate and analyzed for splicing correction using a Glomax luminometer (PROMEGA GloMax® 96 Microplate Luminometer w/Dual Injectors cat.E6521) and Promega Dual Glo Firefly and Stop and Glo Renilla reagents (Cat.E196). The compound's ability to correct splicing and promote exon 20 inclusion was marked by an increase in Firefly signal. Renilla signal, which is independent of exon 20 inclusion, was used to correct for cell number. Using the ratio of Firefly to Renilla signal, a dose response curve was produced, which referenced kinetin and DMSO Firefly/Renilla ratios as positive and negative controls, respectively.
(In general: A reporter such as luciferase makes a cellular process visible.)

Where [1] appears, read: max efficacy in Primary Assay, Firefly/Renilla ratio, kinetin and DMSO as positive and negative controls, 24 hours of treatment, read-out: Emax (%).
Where [2] appears, read: Firefly/Renilla ratio, 24 hours of treatment.
The mark [3] stands for this setting: max efficacy, value marked (RT-PCR), footnote a: Firefly inhibitor, read-out: Emax (%) (RT-PCR).
Where [4] appears, read: max efficacy, Firefly only, footnote c: Renilla interference/Firefly only, read-out: Emax (%) Firefly only.

Read-outs that look alike come from different tables or passages of the source.

Consider `Cc1cccc(CNc2ncnc3[nH]cnc23)c1` [(1)], for which the maximum response (Emax) under setting [1] is 19%.
On to `c1coc(CNc2ncnc3[nH]ccc23)c1` [(3)], for which the Emax under setting [1] was determined as 59%.
As for `FC(F)(F)c1cccc(CCNc2ncnc3[nH]cnc23)c1` [(5)], the EC (maximum kinetin efficacy) under setting [2] is 63.5 µM.
Consider `c1c[nH]c(CNc2ncnc3[nH]cnc23)n1` [(6)], for which the Emax under setting [1] turned out to be 21%.
Same read-out and setting: the same measure for `c1cncc(CNc2ncnc3[nH]cnc23)c1` [(7)]: 39%; for `Cc1cc(CNc2ncnc3[nH]cnc23)on1` [(8)]: 25%; for `FC(F)(F)c1cccc(CNc2ncnc3[nH]cnc23)c1` [(10)]: 21%.
`Fc1cccc(CNc2ncnc3[nH]cnc23)c1` [(12)]: the maximal effect (Emax) (max efficacy in Primary Assay, value flagged footnote a: Firefly inhibitor, read-out: Emax (%)) came out at 54%.
For `FC(F)(F)c1cccc(Nc2ncnc3[nH]cnc23)c1` [(13)], under setting [1], the maximum response (Emax) was 16%.
The same measure, in the same setting: to `Cc1ccccc1CNc1ncnc2[nH]cnc12` [(14)] belongs 53%.
For `Fc1ccccc1Nc1ncnc2[nH]cnc12` [(15)], the EC (maximum kinetin efficacy) under setting [2] is 158 µM.
For the compound `c1csc(CNc2ncnc3[nH]cnc23)n1` [(16)], the Emax under setting [1] turned out to be 67%.
`FC(F)(F)c1ccccc1Nc1ncnc2[nH]cnc12` [(18)]: the maximum response (Emax) under setting [1] is 39%.
`Cn1cnc2c(NCc3ccco3)ncnc21` [(20)]: the Emax under setting [1] amounted to 22%.
Same read-out and setting: to `c1coc(CNc2ncnc3cc[nH]c23)c1` [(22)] belongs 49%; to `FC(F)(F)c1ccccc1CNc1ncnc2[nH]cnc12` [(23)], 34%.
Turning to `Cc1cccc(CCNc2ncnc3[nH]cnc23)c1` [(25)], under setting [2], the EC (maximum kinetin efficacy) amounted to 9.35 µM.
In the case of `FC(F)(F)c1ccc(CCNc2ncnc3[nH]cnc23)cc1` [(26)], the Emax under setting [1] amounted to 66%.
For `Fc1cccc(CCNc2ncnc3[nH]cnc23)c1` [(28)], under setting [2], the EC (maximum kinetin efficacy) is 123 µM. Under setting [1], the maximal response (Emax) stood at 98%.
For the compound `Cc1ccccc1CCNc1ncnc2[nH]cnc12` [(32)], under setting [2], the EC (maximum kinetin efficacy) worked out at 60 µM.
On the same count and under the same terms, the same measure for `Fc1ccc(Nc2ncnc3[nH]cnc23)cc1` [(34)]: 26.6 µM.
As to `COc1nc(NCc2ccco2)c2nc[nH]c2n1` [(36)], the maximal effect (Emax) under setting [1] is 18%.
In the case of `Cc1cccc(Nc2ncnc3[nH]cnc23)c1` [(37)], under setting [2], the EC (maximum kinetin efficacy) came out at 36.5 µM.
Regarding `c1ccc(-c2nc(NCc3ccco3)c3nc[nH]c3n2)cc1` [(38)], the maximal effect (Emax) under setting [1] was 5%.
Consider `c1cncc(CCNc2ncnc3[nH]cnc23)c1` [(41)], for which the Emax under setting [1] was 35%.
In the case of `FC(F)(F)c1nc(NCc2ccco2)c2nc[nH]c2n1` [(44)], the Emax under setting [1] came to 19%.
Still for that read-out and setting: to `Cc1nc(NCc2ccco2)c2nc[nH]c2n1` [(45)] belongs 56%; to `N#Cc1nc(NCc2ccco2)c2nc[nH]c2n1` [(47)], 99%.
Take `c1coc(CNc2ccnc3[nH]cnc23)c1` [(48)]: the EC (maximum kinetin efficacy) under setting [2] was determined as 72.8 µM.
On the same count and under the same terms, to `COc1cccc(Nc2ncnc3[nH]cnc23)c1` [(49)] belongs 42.5 µM.
In the case of `Cc1ccoc1CNc1ncnc2[nH]cnc12` [(54)], the Emax under setting [1] was found to be 13%.
As for `Clc1nc(NCc2ccco2)c2cc[nH]c2n1` [(55)], under setting [2], the EC (maximum kinetin efficacy) amounted to 1.71 µM. Also, under setting [1], the Emax was found to be 173%.
Regarding `Clc1nc(NCc2ccco2)c2ccsc2n1` [(56)], the EC (maximum kinetin efficacy) under setting [2] turned out to be 8.23 µM. Further, the Emax under setting [1] came out at 152%.
Turning to `Clc1nc(NCc2ccco2)c2[nH]ccc2n1` [(57)], under setting [2], the EC (maximum kinetin efficacy) is 31.2 µM.
`Fc1nc(NCc2ccco2)c2nc[nH]c2n1` [(58)]: the EC (maximum kinetin efficacy) under setting [2] is 17.9 µM. Also, the Emax under setting [1] came out at 155%.
As for `CN(C)c1nc(NCc2ccco2)c2nc[nH]c2n1` [(60)], the Emax under setting [1] is 13%.
Still for that read-out and setting: to `c1coc(CNc2nc(C3CC3)nc3[nH]cnc23)c1` [(65)] belongs 32%; to `CC(C)c1nc(NCc2ccco2)c2nc[nH]c2n1` [(67)], 13%; to `c1cc(CNc2ncnc3[nH]cnc23)ncn1` [(68)], 62%.
On the same count and under the same terms, the same measure for `Clc1nc(NCc2ccco2)c2ncn(Cc3ccncc3)c2n1` [(72)]: 39%.
In the case of `OCCn1cnc2c(NCc3ccco3)nc(Cl)nc21` [(73)], the EC (maximum kinetin efficacy) under setting [2] worked out at 17.1 µM. Also, under setting [1], the Emax worked out at 133%.
In the case of `OCCn1ccc2c(NCc3ccco3)ncnc21` [(74)], the Emax under setting [1] was found to be 64%.
On the same count and under the same terms, the same measure for `Clc1nc(NCc2ccco2)c2ncn(Cc3cccnc3)c2n1` [(76)]: 69%.
Turning to `OCCn1ccc2c(NCc3ccco3)nc(Cl)nc21` [(77)], the “ECk (RT-PCR)” value lay within 1 to 10 µM. For the setting “max efficacy, value marked (RT-PCR), footnote b: Renilla interference, read-out: Emax (%) (RT-PCR)”, the maximum response (Emax) came out at 321%.
On to `Clc1nc(NCc2ccco2)c2ncn(Cc3ccccn3)c2n1` [(79)], for which, under setting [1], the Emax is 43%.
Take `Fc1c[nH]c2nc(Cl)nc(NCc3ccco3)c12` [(81)]: the EC (maximum kinetin efficacy) under setting [2] came to 3.08 µM.
Turning to `c1ccc(-c2c[nH]c3ncnc(NCc4ccco4)c23)cc1` [(83)], the maximum response (Emax) under setting [1] was 4%.
Turning to `Cc1c[nH]c2nc(Cl)nc(NCc3ccco3)c12` [(84)], the “ECk (RT-PCR)” value was 1 to 10 µM. Further, the maximal response (Emax) under setting [3] was determined as 251%.
For `Clc1nc(NCc2ccco2)c2cn[nH]c2n1` [(85)], the Emax under setting [1] turned out to be 96%.
Same read-out and setting: the same measure for `Clc1nc(NCc2ccco2)c2c(-c3ccccc3)c[nH]c2n1` [(86)]: 29%.
Regarding `Cc1nc2ncnc(NCc3ccco3)c2[nH]1` [(87)], the Emax under setting [1] is 46%.
Same read-out and setting: to `Clc1nc(NCc2ccco2)c2nc(-c3cccnc3)[nH]c2n1` [(88)] belongs 33%; to `Clc1nc(NCc2ccco2)c2c(-c3ccncc3)c[nH]c2n1` [(89)], 21%.
For `Cc1nc2c(NCc3ccco3)nc(Cl)nc2[nH]1` [(90)], the EC (maximum kinetin efficacy) under setting [2] came out at 11.8 µM. Moreover, the maximum response (Emax) under setting [1] was determined as 159%.
For the compound `Clc1nc(NCc2ccco2)c2nc(-c3ccccc3)[nH]c2n1` [(93)], the Emax under setting [1] stood at 63%.
Regarding `COCCn1ccc2c(NCc3ccco3)nc(Cl)nc21` [(94)], the “ECk (RT-PCR)” value lay within 10 to 31.6 µM. Besides, the Emax under setting [3] was found to be 180%.
As to `Clc1nc(NCc2ccco2)c2nc(C3CC3)[nH]c2n1` [(95)], the EC (maximum kinetin efficacy) under setting [2] was 122 µM. Besides, the Emax under setting [1] came to 103%.
Turning to `c1coc(CNc2ncnc3[nH]c(C4CC4)nc23)c1` [(96)], the maximum response (Emax) under setting [1] worked out at 65%.
Same read-out and setting: to `Clc1nc(NCc2ccco2)c2nc(Cc3ccncc3)[nH]c2n1` [(99)] belongs 47%; to `Clc1nc(NCc2ccco2)c2nc(N3CCOCC3)[nH]c2n1` [(102)], 52%.
`OC1CN(c2nc3c(NCc4ccco4)nc(Cl)nc3[nH]2)C1` [(104)]: the EC (maximum kinetin efficacy) under setting [2] came out at 12 µM. In addition, the maximal effect (Emax) under setting [1] was found to be 246%.
In the case of `Cc1cn(CCO)c2nc(Cl)nc(NCc3ccco3)c12` [(105)], the “ECk, Firefly only” value is 10.36 µM⁻¹. Moreover, the Emax under setting [4] is 134%.
On to `O=C(O)c1ccc(CNc2nc(Cl)nc3[nH]ccc23)cc1` [(106)], for which, under setting [1], the Emax came to 14%.
As for `OCCCn1ccc2c(NCc3ccco3)nc(Cl)nc21` [(108)], the Emax under setting [3] stood at 172%.
On to `OCc1c[nH]c2nc(Cl)nc(NCc3ccco3)c12` [(109)], for which the “ECk, Firefly only” value was determined as 12.16 µM⁻¹. Besides, the Emax under setting [4] turned out to be 128%.
In the same order, the values of `Clc1nc(NCc2ccncn2)c2cc[nH]c2n1` [(110)] are 4.92 µM⁻¹ and 193%.
For the compound `OCCn1cc(F)c2c(NCc3ccco3)nc(Cl)nc21` [(111)], the “ECk, Firefly only” value is 9.3 µM⁻¹. Besides, the Emax under setting [4] was determined as 191%.
Consider `Fc1c[nH]c2nc(Cl)nc(NCc3ccncn3)c12` [(112)], for which the “ECk, Firefly only” value was 5.33 µM⁻¹. Also, the Emax under setting [4] came out at 111%.
As for `CNc1nc2c(NCc3ccco3)nc(Cl)nc2[nH]1` [(113)], under setting [2], the EC (maximum kinetin efficacy) is 5.17 µM. The maximum response (Emax) under setting [1] was 132%.
On to `Fc1c[nH]c2nc(Cl)nc(NCc3ccncc3)c12` [(114)], for which the “ECk, Firefly only” value is 6.59 µM⁻¹. Moreover, the maximum response (Emax) under setting [4] was 174%.
Consider `Cc1cc2c(NCc3ccco3)nc(Cl)nc2[nH]1` [(115)], for which the EC (maximum kinetin efficacy) under setting [2] was 5.92 µM. Moreover, the maximal response (Emax) under setting [1] was 174%.

The term Emax denotes the greatest response seen or fitted, relative to the assay's reference.
